Results from publication PMC10726920 (Cancer Medicine, 2023).
Entries after “also recorded” stand apart in the source; their conditions may differ.

What was measured:
BCR‐ABL‐positive ALL = test system: BCR‐ABL‐positive ALL; design: method as in PMID 23090679; details: cited from earlier work
[1] = Pearson correlation of sapanisertib clearance with toxicity and group variables; type: in vivo, human; details: p > 0.05
Description: Blood samples were obtained on Days 1, 2, and 8 of Cycle 1. […] plasma concentrations were measured using liquid chromatography‐mass spectroscopy. Plasma concentration‐time data were analyzed by standard methods using WinNonlin. Pearson's correlation coefficient (r) was used to assess correlation of group variables. Statistical significance was defined as p < 0.05. Additional details are contained in the Supplementary Method: Data S1.
Statistical significance was defined as P<0.05.

[2] = test system: human ALL lines and clinical ALL samples; design: method as in PMID 26917778; details: cited from earlier work
[3] = test system: mTOR pathway substrates 4EBP1, S6, AKT; experiment: Immunoblotting of paired bone marrow samples (pretreatment vs Day 8) from trial patients; type: in vivo, human
From the text: Bone marrow aspirates harvested prior to treatment and again prior to drug administration on Day 8 ± 2 of treatment from the same patients were shipped overnight to a central laboratory, where marrow mononuclear cells isolated on Ficoll–Hypaque gradients were lysed under denaturing conditions that preserve protein phosphorylations. Paired whole cell lysates were subjected to SDS‐polyacrylamide gel electrophoresis and immunoblotting as described in the Supplementary Method: Data S1.
Cells were isolated from bone marrow or blood samples using Histopaque-1077 (Millipore-Sigma, St. Louis, MO) step gradients. […] Cells for ex vivo drug exposure were resuspended at a concentration of 1 x 10^6 cells/ml in RPMI 1640 medium containing 10% (v/v) heat-inactivated fetal bovine serum, 50 U/ml penicillin G, 50 µg/ml streptomycin, and 1 mM glutamine.
After samples were dialyzed sequentially into 4 M urea and 0.1% (w/v) SDS, lyophilized and reconstituted in SDS-sample buffer consisting of 4 M urea, 2% (w/v) SDS, […] (pH 6.8 at 4 °C), 10 mM EDTA, and 1% (w/v/) 2-mercaptoethanol, aliquots containing […] of total cellular protein were subjected to SDS-PAGE on gels containing 5-20% polyacrylamide gradients, transferred to nitrocellulose, and probed with antibodies as previously described ^34, 35. […]

Compound: CC(C)n1nc(-c2ccc3oc(N)nc3c2)c2c(N)ncnc21 [sapanisertib]
- growth of syngeneic mouse model of BCR‐ABL‐positive ALL (BCR‐ABL‐positive ALL): inhibited growth
- correlation between systemic clearance and sex, age, or total body weight [1]: no significant correlation
- cytotoxic effects compared with rapamycin [2]: greater cytotoxic effects than rapamycin
- induction of BIMEL and PUMA in trial samples ([3]; five pairs of samples): minimal in one pair of samples (Patient 2) and absent from the other four pairs
- impact on mTOR‐mediated phosphorylation (4EBP1, S6, AKT) in trial samples ([3]; pretreatment vs Day 8 trough, five patients): limited impact; also recorded: little evidence that mTOR‐mediated phosphorylation has been disrupted; also recorded: failed to convincingly demonstrate inhibition
